Measurements taken from patent US12577206B2 (BRISTOL-MYERS SQUIBB COMPANY, priority 2020, dated 2026).

What was measured:
human FPR1 = target: T1, human FPR1 (Homo sapiens, UniProt P21462); test: FPR1 cyclic adenosine monophosphate (cAMP) assay; format: cell-based; conditions: CHO cells overexpressing human FPR1; forskolin 10 μM; inhibition of cAMP production; HTRF; read-out: hFPR1 cAMP2 EC50
T1 sequence (P21462 1-350): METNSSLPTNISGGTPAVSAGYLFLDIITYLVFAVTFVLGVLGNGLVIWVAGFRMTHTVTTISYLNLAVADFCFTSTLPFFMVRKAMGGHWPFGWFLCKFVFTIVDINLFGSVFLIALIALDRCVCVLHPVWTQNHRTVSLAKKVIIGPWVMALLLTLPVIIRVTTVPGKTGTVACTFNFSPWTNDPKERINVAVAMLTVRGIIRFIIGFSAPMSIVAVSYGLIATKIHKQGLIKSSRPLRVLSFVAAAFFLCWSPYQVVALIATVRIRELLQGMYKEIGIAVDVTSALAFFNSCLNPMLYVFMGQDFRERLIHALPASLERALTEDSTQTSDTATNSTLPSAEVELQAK
How it was run: (§1)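 Gi-coupled activity is read as suppression of forskolin-stimulated cAMP (10 μM final for FPR1, 5 μM final for FPR2; IBMX 200 μM final) in recombinant CHO cells, 30 min incubation at rt, HTRF detection.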

human FPR2 = target: T2, human FPR2 (Homo sapiens, UniProt P25090); test: FPR2 cyclic adenosine monophosphate (cAMP) assay; format: cell-based; conditions: CHO cells overexpressing human FPR2; forskolin 5 μM; inhibition of cAMP production; HTRF; read-out: hFPR2 cAMP2 EC50
T2 sequence (P25090 1-351): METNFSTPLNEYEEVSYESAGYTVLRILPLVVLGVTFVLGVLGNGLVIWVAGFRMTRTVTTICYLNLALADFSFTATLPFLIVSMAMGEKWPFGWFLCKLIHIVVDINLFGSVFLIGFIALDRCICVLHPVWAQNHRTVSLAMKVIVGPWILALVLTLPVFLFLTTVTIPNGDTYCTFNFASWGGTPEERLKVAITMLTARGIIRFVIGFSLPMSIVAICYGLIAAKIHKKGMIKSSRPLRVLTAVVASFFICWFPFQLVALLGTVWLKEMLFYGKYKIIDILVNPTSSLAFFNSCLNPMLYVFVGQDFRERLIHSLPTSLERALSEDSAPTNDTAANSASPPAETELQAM
How it was run: as §1

EC50 (human FPR1) [µM]	EC50 (human FPR2) [µM]	SMILES
> 10	0.004	COc1cc(Cl)cc(-n2c(=O)c(NC(=O)c3ccc(OC(F)F)cc3)c(-c3c(F)cc(OC)cc3F)n2C)c1 [Example 124, N-[2-(3-chloro-5-methoxyphenyl)-5-(2,6-difluoro-4-methoxyphenyl)-1-methyl-3-oxo-2,3-dihydro-1H-pyrazol-4-yl]-4-(difluoromethoxy)benzamide]
> 10	0.005	COc1cc(F)c(-c2c(NC(=O)c3ccc(OC(F)F)cc3)c(=O)n(-c3cc(C)cc(OC4CCOC4)n3)n2C)c(F)c1 (stereo not drawn) [Example 359, N-(5-(2,6-Difluoro-4-methoxyphenyl)-1-methyl-2-(4-methyl-6-((tetrahydrofuran-3-yl)oxy)pyridin-2-yl)-3-oxo-2,3-dihydro-1H-pyrazol-4-yl)-4-(difluoromethoxy)benzamide]
> 10	0.003	COc1cc(F)c(-c2c(NC(=O)c3ccc(OC(F)F)cc3)c(=O)n(-c3nc(NC(C)(C)CO)ccc3C(F)(F)F)n2C)c(F)c1 [Example 256, N-[5-(2,6-difluoro-4-methoxyphenyl)-2-{6-[(1-hydroxy-2-methylpropan-2-yl)amino]-3-(trifluoromethyl)pyridin-2-yl}-1-methyl-3-oxo-2,3-dihydro-1H-pyrazol-4-yl]-4-(difluoromethoxy)benzamide]
> 10	0.012	COc1cc(F)c(-c2c(NC(=O)c3ccc(OC(F)F)cc3)c(=O)n(-c3cccc(OC(F)F)n3)n2C)c(F)c1 [Example 168, N-[5-(2,6-difluoro-4-methoxyphenyl)-2-[6-(difluoromethoxy)pyridin-2-yl]-1-methyl-3-oxo-2,3-dihydro-1H-pyrazol-4-yl]-4-(difluoromethoxy)benzamide]
4	0.015	COc1cc(F)c(-c2c(NC(=O)c3ccc(OC(F)F)cc3)c(=O)n(-c3cccc(C(F)(F)F)n3)n2C)c(F)c1 [Example 156, N-[5-(2,6-difluoro-4-methoxyphenyl)-1-methyl-3-oxo-2-[6-(trifluoromethyl)pyridin-2-yl]-2,3-dihydro-1H-pyrazol-4-yl]-4-(difluoromethoxy)benzamide]
> 10	0.01	COc1cc(F)c(-c2c(NC(=O)c3ccc(OC(F)F)cc3)c(=O)n(-c3cc(F)ccc3Cl)n2C)c(F)c1 [Example 186, N-[2-(2-chloro-5-fluorophenyl)-5-(2,6-difluoro-4-methoxyphenyl)-1-methyl-3-oxo-2,3-dihydro-1H-pyrazol-4-yl]-4-(difluoromethoxy)benzamide]
> 5	0.003	CCOc1ccc(C(F)(F)F)c(-n2c(=O)c(NC(=O)c3ccc(OC(F)F)cc3)c(-c3c(F)cc(OC)cc3F)n2C)n1 [Example 286, N-[5-(2,6-difluoro-4-methoxyphenyl)-2-[6-ethoxy-3-(trifluoromethyl)pyridin-2-yl]-1-methyl-3-oxo-2,3-dihydro-1H-pyrazol-4-yl]-4-(difluoromethoxy)benzamide]
2.5	0.001	COc1cc(OCC(O)C(F)(F)F)nc(-n2c(=O)c(NC(=O)c3ccc(OC(F)F)cc3)c(-c3c(F)cc(OC)cc3F)n2C)c1 (stereo not drawn) [Example 383, N-(5-(2,6-Difluoro-4-methoxyphenyl)-2-(4-methoxy-6-(3,3,3-trifluoro-2-hydroxypropoxy)pyridin-2-yl)-1-methyl-3-oxo-2,3-dihydro-1H-pyrazol-4-yl)-4-(difluoromethoxy)benzamide]
1.7	0.006	CCc1cc(F)c(-c2c(NC(=O)c3ccc(OC(F)(F)F)cc3)c(=O)n(-c3cccc(C(C)(C)O)n3)n2C)c(F)c1 [Example 403, N-(5-(4-ethyl-2,6-difluorophenyl)-2-(6-(2-hydroxypropan-2-yl)pyridin-2-yl)-1-methyl-3-oxo-2,3-dihydro-1H-pyrazol-4-yl)-4-(trifluoromethoxy)benzamide]
> 10	0.004	COc1cc(OCCCO)nc(-n2c(=O)c(NC(=O)c3ccc(OC(F)F)cc3)c(-c3c(F)cc(OC)cc3F)n2C)c1 [Example 329, N-(5-(2,6-Difluoro-4-methoxyphenyl)-2-(6-(3-hydroxypropoxy)-4-methoxypyridin-2-yl)-1-methyl-3-oxo-2,3-dihydro-1H-pyrazol-4-yl)-4-(difluoromethoxy)benzamide]
0.18	0.0027	COc1cc(F)c(-c2c(NC(=O)c3ccc(OC(F)F)cc3)c(=O)n(-c3cccc(-c4ccccc4)n3)n2C)c(F)c1 [Example 72, N-[5-(2,6-difluoro-4-methoxyphenyl)-1-methyl-3-oxo-2-(6-phenylpyridin-2-yl)-2,3-dihydro-1H-pyrazol-4-yl]-4-(difluoromethoxy)benzamide]
> 10	0.001	COCCNc1ccc(C(F)(F)F)c(-n2c(=O)c(NC(=O)c3ccc(OC(F)F)cc3)c(-c3c(F)cc(OC)cc3F)n2C)n1 [Example 235, N-[5-(2,6-difluoro-4-methoxyphenyl)-2-{6-[(2-methoxyethyl)amino]-3-(trifluoromethyl)pyridin-2-yl}-1-methyl-3-oxo-2,3-dihydro-1H-pyrazol-4-yl]-4-(difluoromethoxy)benzamide]
3	0.014	COc1cc(F)c(-c2c(NC(=O)c3ccc(OC(F)F)cc3)c(=O)n(-c3cccc(Cl)n3)n2C)c(F)c1 [Example 39, N-[2-(6-chloropyridin-2-yl)-5-(2,6-difluoro-4-methoxyphenyl)-1-methyl-3-oxo-2,3-dihydro-1H-pyrazol-4-yl]-4-(difluoromethoxy)benzamide]
0.15	0.004	COc1cc(F)c(-c2c(NC(=O)c3ccc(OC(F)F)cc3)c(=O)n(-c3nc(N4CCNC(=O)C4)ccc3C(F)(F)F)n2C)c(F)c1 [Example 214, N-[5-(2,6-difluoro-4-methoxyphenyl)-1-methyl-3-oxo-2-[6-(3-oxopiperazin-1-yl)-3-(trifluoromethyl)pyridin-2-yl]-2,3-dihydro-1H-pyrazol-4-yl]-4-(difluoromethoxy)benzamide]
0.19	0.005	COc1cc(F)c(-c2c(NC(=O)c3ccc(OC(F)F)cc3)c(=O)n(-c3cccc(C#N)c3F)n2C)c(F)c1 [Example 189, N-[2-(3-cyano-2-fluorophenyl)-5-(2,6-difluoro-4-methoxyphenyl)-1-methyl-3-oxo-2,3-dihydro-1H-pyrazol-4-yl]-4-(difluoromethoxy)benzamide]
> 10	0.003	COc1cc(F)c(-c2c(NC(=O)c3ccc(OC(F)F)cc3)c(=O)n(-c3nc(NCC(=O)NC4CC4)ccc3C(F)(F)F)n2C)c(F)c1 [Example 229, N-[2-(6-{[(cyclopropylcarbamoyl)methy]amino}-3-(trifluoromethyl)pyridin-2-yl)-5-(2,6-difluoro-4-methoxyphenyl)-1-methyl-3-oxo-2,3-dihydro-1H-pyrazol-4-yl]-4-(difluoromethoxy)benzamide]
> 10	0.003	COc1cc(F)c(-c2c(NC(=O)c3ccc(OC(F)F)cc3)c(=O)n(-c3nc(NCCO)ccc3C(F)(F)F)n2C)c(F)c1 [Example 225, N-[5-(2,6-difluoro-4-methoxyphenyl)-2-{6-[(2-hydroxyethyl)amino]-3-(trifluoromethyl)pyridin-2-yl}-1-methyl-3-oxo-2,3-dihydro-1H-pyrazol-4-yl]-4-(difluoromethoxy)benzamide]
> 10	0.006	COc1cc(F)c(-c2c(NC(=O)c3ccc(OC(F)F)cc3)c(=O)n(-c3cc(C)cc(OCC4CCOC4)n3)n2C)c(F)c1 (stereo not drawn) [Example 352, N-(5-(2,6-Difluoro-4-methoxyphenyl)-1-methyl-2-(4-methyl-6-((tetrahydrofuran-3-yl)methoxy)pyridin-2-yl)-3-oxo-2,3-dihydro-1H-pyrazol-4-yl)-4-(difluoromethoxy)benzamide]
0.75	0.005	COc1cc(F)c(-c2c(NC(=O)c3ccc(OC(F)F)cc3)c(=O)n(-c3cccc(C(C)(C)O)n3)n2C)c(F)c1 [Example 85]
> 10	0.007	COc1cc(F)c(-c2c(NC(=O)c3ccc(OC(F)(F)F)cc3)c(=O)n(-c3cc(C(F)(F)F)ccn3)n2C)c(F)c1 [Example 63, N-[5-(2,6-difluoro-4-methoxyphenyl)-1-methyl-3-oxo-2-[4-(trifluoromethyl)pyridin-2-yl]-2,3-dihydro-1H-pyrazol-4-yl]-4-(trifluoromethoxy)benzamide]
> 10	0.043	COc1cc(F)c(-c2c(NC(=O)c3ccc(Cl)cc3)c(=O)n(-c3ccc(C)cn3)n2C)c(F)c1 [Example 48, 4-chloro-N-[5-(2,6-difluoro-4-methoxyphenyl)-1-methyl-2-(5-methylpyridin-2-yl)-3-oxo-2,3-dihydro-1H-pyrazol-4-yl]benzamide]
